Experimental data: patent publication US8993585B2, “Cyclic amine substituted pyrimidinediamines as PKC inhibitors” (Rigel Pharmaceuticals, Inc., priority 2007, dated 2015)

Columns and labels:
PKC theta = molecular target: T1, PKC theta (Homo sapiens, UniProt Q04759); assay: PKC assay, fluorescence polarization (Example 2), PKC theta; format: biochemical; conditions: 5 μM ATP
T1 construct: purchased Upstate Biotechnologies, Temecula, CA 14-444
Procedure, shortened: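 Phosphorylated peptide product detected by fluorescence polarization, with EDTA quench plus peptide tracer and antibody. Reaction in 20 mM HEPES pH 7.4, 5 mM MgCl2, 0.2 mM CaCl2, 1 mM DTT, 0.02% Brij-35, phosphatidylserine and dioleoyl-sn-glycerol, with 5 μM ATP and 5 μM peptide. Started with enzyme, 20 min at room temperature.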

PKC epsilon = molecular target: T2, PKC epsilon (Homo sapiens, UniProt Q02156); assay: PKC assay, fluorescence polarization (Example 2), PKC epsilon; format: biochemical; conditions: 5 μM ATP
T2 construct: purchased Upstate Biotechnologies, Temecula, CA 14-518
T2 sequence (Q02156 1-737): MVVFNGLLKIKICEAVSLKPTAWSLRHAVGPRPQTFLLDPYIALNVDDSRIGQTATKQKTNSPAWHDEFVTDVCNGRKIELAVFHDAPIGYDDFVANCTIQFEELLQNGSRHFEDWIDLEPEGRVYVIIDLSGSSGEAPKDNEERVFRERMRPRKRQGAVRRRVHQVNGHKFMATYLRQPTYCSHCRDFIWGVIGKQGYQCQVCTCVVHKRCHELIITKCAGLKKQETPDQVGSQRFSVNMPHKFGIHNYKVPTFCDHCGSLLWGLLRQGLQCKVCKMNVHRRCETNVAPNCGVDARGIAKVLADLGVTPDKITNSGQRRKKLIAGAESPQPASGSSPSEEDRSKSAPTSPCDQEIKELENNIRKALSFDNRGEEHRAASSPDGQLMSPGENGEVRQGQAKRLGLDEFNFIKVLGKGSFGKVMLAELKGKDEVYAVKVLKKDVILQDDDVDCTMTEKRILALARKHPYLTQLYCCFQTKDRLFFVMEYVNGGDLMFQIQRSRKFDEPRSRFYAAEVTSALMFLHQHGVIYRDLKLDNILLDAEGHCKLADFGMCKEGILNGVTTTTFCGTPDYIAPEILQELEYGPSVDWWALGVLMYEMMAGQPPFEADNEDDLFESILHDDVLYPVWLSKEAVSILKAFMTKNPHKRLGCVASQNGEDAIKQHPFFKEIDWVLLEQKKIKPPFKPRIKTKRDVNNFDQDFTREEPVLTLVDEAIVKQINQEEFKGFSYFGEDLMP
Protocol: The inhibition of PKC activity was measured by monitoring the production of phosphorylated peptide by fluorescence polarization at different concentrations of the inhibitor. Reactions were carried out in 96-well plate format with a total volume of 20 μL containing 20 mM HEPES, pH 7.4, 5 mM MgCl2, 0.2 mM CaCl2, 1 mM DTT, 0.02% Brij-35, 0.1 mg/mL phosphatidylserine, 0.02 mg/mL dioleoyl-sn-glycerol and 5 μM each of ATP and the peptide substrate. Compounds were first diluted serially in DMSO and then transferred to a solution containing the above concentrations of HEPES, MgCl2, CaCl2, DTT, and Brij-35 to yield 5× compound solutions in 2% DMSO, which was then added to the reaction solution. Reactions were initiated by the addition of PKC at a typical concentration as described in Table VI, and then allowed to incubate at room temperature for 20 min. At the end of this time, a combination of quench (EDTA) and detection (peptide tracer and antibody) reagents was added using the protocol of Invitrogen P2748.

Human primary T cells = assay: IL-2 ELISA, Human Primary T Cell, Anti-CD3+CD28+ (Example 3); format: cell-based; conditions: Homo sapiens, T-cell, 24 h, anti-CD3+CD28 stimulation
Procedure, shortened: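 IL-2 was read by ELISA after stimulation on wells pre-coated with 1 ug/ml αCD3 and 5 μg/ml αCD28. Before this, 100,000 human primary T cells per well spent 1 h at 37 °C with test compound in Yssel's medium. The counter-screen replaced antibody stimulation with PMA (0.5 ng/ml final) and ionomycin (0.1 uM final).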

T1 sequence (Q04759 whole entry): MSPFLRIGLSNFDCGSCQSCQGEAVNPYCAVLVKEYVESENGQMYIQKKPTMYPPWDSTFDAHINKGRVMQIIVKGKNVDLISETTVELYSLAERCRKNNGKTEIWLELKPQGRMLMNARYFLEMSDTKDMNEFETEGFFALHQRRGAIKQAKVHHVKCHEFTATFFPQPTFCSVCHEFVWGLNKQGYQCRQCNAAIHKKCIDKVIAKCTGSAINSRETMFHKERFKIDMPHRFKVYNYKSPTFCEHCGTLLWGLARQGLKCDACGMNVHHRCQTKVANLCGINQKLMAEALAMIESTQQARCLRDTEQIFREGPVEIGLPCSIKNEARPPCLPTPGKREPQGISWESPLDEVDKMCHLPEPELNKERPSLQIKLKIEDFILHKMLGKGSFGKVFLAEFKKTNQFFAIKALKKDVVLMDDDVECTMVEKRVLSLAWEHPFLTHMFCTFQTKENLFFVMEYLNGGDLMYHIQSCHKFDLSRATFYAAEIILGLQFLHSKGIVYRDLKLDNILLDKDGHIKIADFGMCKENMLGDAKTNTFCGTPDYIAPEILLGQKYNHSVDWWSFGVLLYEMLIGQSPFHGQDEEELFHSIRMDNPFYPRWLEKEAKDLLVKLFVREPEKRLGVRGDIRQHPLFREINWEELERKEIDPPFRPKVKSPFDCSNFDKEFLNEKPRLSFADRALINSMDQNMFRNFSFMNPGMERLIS

Compound	IC50 (PKC theta) [nM]	IC50 (PKC epsilon) [nM]	IC50 (Human primary T cells) [nM]
CCCN1CCN(c2cc(Nc3ncc(F)c(NC4CC(C)(C)N(C)C(C)(C)C4)n3)ccc2C(F)(F)F)CC1 [Compound I-218]	6.52	18.4	216
COc1ccc(Nc2ncc(C(F)(F)F)c(NC3CC(C)(C)N(C)C(C)(C)C3)n2)cc1OC(F)F [Compound I-350]	3.41	589	161
CSc1nnnn1-c1cccc(Nc2ncc(C(N)=O)c(NC3CC(C)(C)N(C)C(C)(C)C3)n2)c1 [Compound I-456]	6.3	49	350
CN1C(=O)C(C)(C)Oc2cc(Nc3ncc(F)c(NC4CC(C)(C)N(C)C(C)(C)C4)n3)ccc21 [II-34]	15.7	102	224
CN1C(C)(C)CC(Nc2nc(Nc3cccc(-n4cnnn4)c3)ncc2F)CC1(C)C [Compound I-357]	5.11	7.11	67.6
CN1C(C)(C)CC(Nc2nc(Nc3ccc(C#N)c(C#N)c3)ncc2F)CC1(C)C [Compound I-141]	3.29	249	245
COc1ccc(Nc2ncc(C#N)c(NC3CC(C)(C)N(C)C(C)(C)C3)n2)cc1Cl [Compound I-93]	2.59	208	344
CN1C(C)(C)CC(Nc2nc(Nc3ccc(OC(F)F)c(OC(F)F)c3)ncc2F)CC1(C)C [Compound I-344]	6.54	40.7	205
Cc1ccc(Nc2ncc(C#N)c(NC3CC(C)(C)N(C)C(C)(C)C3)n2)cc1-n1cnnn1 [Compound I-459]	0.3	22	50
CSc1nnnn1-c1cccc(Nc2ncc(C#N)c(NC3CC(C)(C)NC(C)(C)C3)n2)c1 [Compound I-465]	3.4	115	280
COc1ccc(Nc2ncc(Cl)c(NC3CC(C)(C)N(C)C(C)(C)C3)n2)cc1OC(F)F [Compound I-341]	0.55	53.2	45.6
CCN1CCN(c2ccc(Nc3ncc(F)c(NC4CC(C)(C)N(C)C(C)(C)C4)n3)cc2C(F)(F)F)CC1 [Compound I-246]	3.37	9.94	117
CN1C(C)(C)CC(Nc2nc(Nc3cccc(C#N)c3)ncc2C#N)CC1(C)C [Compound I-97]	1.58	175	289
CCN1C(=O)C(C)(C)Oc2cc(Nc3ncc(F)c(NC4CC(C)(C)N(C)C(C)(C)C4)n3)ccc21 [II-35]	8.94	159	142
CN1C(C)(C)CC(Nc2nc(Nc3ccc(N4CCCC4)c(C(F)(F)F)c3)ncc2F)CC1(C)C [Compound I-232]	63.4	42	894
COc1ccc(Nc2ncc(F)c(NC3CC(C)(C)N(C)C(C)(C)C3)n2)cc1C(F)(F)F [Compound I-147]	8.01	115	168
CCOc1ccc(Nc2ncc(C#N)c(NC3CC(C)(C)N(C)C(C)(C)C3)n2)cc1-n1nnnc1CC [Compound I-460]	0.4	60	30
CN1C(C)(C)CC(Nc2nc(Nc3ccc(N4CCOCC4)c(C(F)(F)F)c3)ncc2F)CC1(C)C [Compound I-224]	29.1	19	112
Cc1cc(Nc2ncc(F)c(NC3CC(C)(C)N(C)C(C)(C)C3)n2)ccc1-c1ccoc1 [Compound I-122]	60.7	18.7	295
CCN1C(=O)C(C)(C)Oc2cc(Nc3ncc(Br)c(NC4CC(C)(C)N(C)C(C)(C)C4)n3)ccc21 [II-128]	0.5	202	80
